DBAASP
Converted amounts (≈) assume the structure as drawn. Each block holds one molecule with its values, some of them ahead of it.

Experiments:
Experiment in all cases: ≥ marks a high value that may be exact or a test limit, other limits are often not marked, values filed in µg/mL are converted to µM
Staphylococcus aureus = tested on: Staphylococcus aureus
[1] = tested on: Streptococcus gordonii Challis DL1
[2] = tested on: Pseudomonas aeruginosa PAK
[3] = tested on: Streptococcus sanguinis NY101
[4] = tested on: Streptococcus mitis ATCC 903
[5] = tested on: Streptococcus mutans UA159
Micrococcus luteus A270 = tested on: Micrococcus luteus A270
Listeria innocua = tested on: Listeria innocua
[6] = tested on: Salmonella enterica subsp. enterica serovar Enteritidis
Escherichia coli = tested on: Escherichia coli
[7] = tested on: Staphylococcus aureus ATCC BAA-1556
Escherichia coli 804 = tested on: Escherichia coli 804
[8] = tested on: Pseudomonas aeruginosa ATCC 27853
[9] = tested on: Acinetobacter baumannii 97830
[10] = tested on: Bacillus subtilis ATCC 23857
[11] = tested on: Acinetobacter baumannii 9931
[12] = tested on: Staphylococcus aureus ATCC 29213
Staphylococcus aureus 75 = tested on: Staphylococcus aureus 75
[13] = tested on: Pseudomonas aeruginosa 50
[14] = tested on: Acinetobacter baumannii ATCC 19606
[15] = tested on: Staphylococcus epidermidis ATCC 12228
[16] = tested on: Klebsiella pneumoniae ATCC 700603
[17] = tested on: Pseudomonas aeruginosa 73
[18] = tested on: Staphylococcus aureus 113
Escherichia coli 780 = tested on: Escherichia coli 780
[19] = tested on: Pseudomonas aeruginosa ATCC 9027
[20] = tested on: Klebsiella pneumoniae LMG 20218
[21] = tested on: Pseudomonas aeruginosa LMG 6395
[22] = tested on: Acinetobacter baumannii LMG 01041
[23] = tested on: Klebsiella aerogenes LMG 02094
[24] = tested on: Escherichia coli LMG 15862

MIC (Staphylococcus aureus): 12.2 µM (≈ 32 µg/mL) | MIC [1]: 12.2 µM (≈ 32 µg/mL) | MIC [2]: 23.9 µM (≈ 62.5 µg/mL) | MIC [3]: 12.2 µM (≈ 32 µg/mL) | MIC [4]: 12.2 µM (≈ 32 µg/mL) | MIC [5]: 3.05 µM (≈ 8 µg/mL)
Compound: CC[C@H](C)[C@H](NC(=O)[C@H](Cc1ccccc1)NC(=O)[C@H](Cc1cnc[nH]1)NC(=O)[C@H](CCCCN)NC(=O)[C@@H](NC(=O)[C@@H](N)Cc1ccccc1)[C@@H](C)CC)C(=O)N[C@@H](Cc1cnc[nH]1)C(=O)N[C@@H](CCCN=C(N)N)C(=O)N[C@@H](Cc1ccccc1)C(=O)N[C@@H](CO)C(=O)NCC(=O)NCC(=O)N[C@@H](CCCN=C(N)N)C(=O)N[C@@H](Cc1c[nH]c2ccccc12)C(=O)N[C@@H](CCCN=C(N)N)C(=O)N[C@@H](Cc1c[nH]c2ccccc12)C(=O)N[C@@H](CCCN=C(N)N)C(=O)N[C@@H](Cc1c[nH]c2ccccc12)C(=O)N[C@@H](Cc1ccccc1)C(N)=O [FIKHFIHRFSGGRWRWRWF]

MIC (Micrococcus luteus A270): 9 µM (≈ 7.16 µg/mL) | MIC (Listeria innocua): 10 µM (≈ 7.96 µg/mL) | MIC [6]: 9 µM (≈ 7.16 µg/mL) | MIC (Escherichia coli): 2 µM (≈ 1.59 µg/mL)
Compound: CC(C)C[C@H](N)C(=O)N[C@@H](C)C(=O)N[C@@H](Cc1cnc[nH]1)C(=O)N[C@@H](CCCN=C(N)N)C(=O)N[C@@H](Cc1ccc(O)cc1)C(=O)N[C@@H](Cc1cnc[nH]1)C(=O)O [LAHRYH]

MIC [7]: ≥ 100 µM
Compound: CC(C)C[C@H](NC(=O)[C@H](CC(C)C)NC(=O)[C@H](CC(C)C)NC(=O)[C@H](CC(C)C)NC(=O)[C@H](CC(C)C)NC(=O)[C@H](CC(C)C)NC(=O)[C@H](CCCCN)NC(=O)[C@H](CCCCN)NC(=O)[C@@H](N)CC(C)C)C(N)=O [LKKLLLLLL]

MIC [7]: ≥ 100 µM
Compound: CC(C)C[C@H](NC(=O)[C@H](CCCCN)NC(=O)[C@H](CC(C)C)NC(=O)[C@H](CC(C)C)NC(=O)[C@H](CC(C)C)NC(=O)[C@H](CC(C)C)NC(=O)[C@H](CC(C)C)NC(=O)[C@H](CCCCN)NC(=O)[C@@H](N)CC(C)C)C(N)=O [LKLLLLLKL]

MIC [7]: ≥ 100 µM
Compound: CC(C)C[C@H](NC(=O)[C@H](CC(C)C)NC(=O)[C@H](CC(C)C)NC(=O)[C@H](CCCCN)NC(=O)[C@H](CC(C)C)NC(=O)[C@H](CC(C)C)NC(=O)[C@H](CC(C)C)NC(=O)[C@@H](N)CC(C)C)C(=O)N[C@@H](CCCCN)C(N)=O [LLLLKLLLK]

MIC (Escherichia coli 804): ≥ 32 µM | MIC [8]: 16 µM (≈ 22.8 µg/mL) | MIC [9]: 16 µM (≈ 22.8 µg/mL) | MIC [10]: 2 µM (≈ 2.85 µg/mL) | MIC [11]: 16 µM (≈ 22.8 µg/mL) | MIC [12]: 4 µM (≈ 5.71 µg/mL) | MIC (Staphylococcus aureus 75): 4 µM (≈ 5.71 µg/mL) | MIC [13]: 8 µM (≈ 11.4 µg/mL) | MIC [14]: 64 µM (≈ 91.3 µg/mL) | MIC [15]: 2 µM (≈ 2.85 µg/mL) | MIC [16]: 32 µM (≈ 45.7 µg/mL) | MIC [17]: ≥ 64 µM | MIC [18]: 4 µM (≈ 5.71 µg/mL) | MIC (Escherichia coli 780): 8 µM (≈ 11.4 µg/mL) | MIC [19]: 16 µM (≈ 22.8 µg/mL)
Compound: CC(C)C[C@H](NC(=O)[C@H](CCCN=C(N)N)NC(=O)[C@H](CCCN=C(N)N)NC(=O)[C@H](Cc1c[nH]c2ccccc12)NC(=O)[C@H](Cc1c[nH]c2ccccc12)NC(=O)[C@H](Cc1c[nH]c2ccccc12)NC(=O)[C@H](CCCN=C(N)N)NC(=O)[C@H](CCCN=C(N)N)NC(=O)[C@@H](N)CC(C)C)C(N)=O [LRRWWWRRL]

MIC (Escherichia coli 804): 16 µM (≈ 17.8 µg/mL) | MIC [8]: 16 µM (≈ 17.8 µg/mL) | MIC [9]: 16 µM (≈ 17.8 µg/mL) | MIC [10]: 8 µM (≈ 8.91 µg/mL) | MIC [11]: 16 µM (≈ 17.8 µg/mL) | MIC [12]: 4 µM (≈ 4.46 µg/mL) | MIC (Staphylococcus aureus 75): 4 µM (≈ 4.46 µg/mL) | MIC [13]: 16 µM (≈ 17.8 µg/mL) | MIC [14]: 64 µM (≈ 71.3 µg/mL) | MIC [15]: 8 µM (≈ 8.91 µg/mL) | MIC [16]: 32 µM (≈ 35.7 µg/mL) | MIC [17]: ≥ 32 µM | MIC [18]: 8 µM (≈ 8.91 µg/mL) | MIC (Escherichia coli 780): 16 µM (≈ 17.8 µg/mL) | MIC [19]: 32 µM (≈ 35.7 µg/mL)
Compound: CC(C)C[C@H](NC(=O)[C@H](CCCN=C(N)N)NC(=O)[C@H](Cc1c[nH]c2ccccc12)NC(=O)[C@H](Cc1c[nH]c2ccccc12)NC(=O)[C@H](Cc1c[nH]c2ccccc12)NC(=O)[C@H](CCCN=C(N)N)NC(=O)[C@@H](N)CC(C)C)C(N)=O [LRWWWRL]

MIC [20]: ≥ 256 µM | MIC [21]: ≥ 32 µM | MIC [22]: ≥ 256 µM | MIC [23]: ≥ 256 µM | MIC [24]: 24 µM (≈ 37.2 µg/mL)
Compound: CC[C@H](C)[C@H](NC(=O)[C@H](CCCN=C(N)N)NC(=O)[C@H](CCCN=C(N)N)NC(=O)[C@H](CCCCN)NC(=O)[C@@H](NC(=O)[C@@H](N)CCCN=C(N)N)[C@@H](C)CC)C(=O)N[C@@H](CCCCN)C(=O)N[C@@H](CCCCN)C(=O)N[C@@H](Cc1c[nH]c2ccccc12)C(=O)N[C@@H](CC(C)C)C(=O)N[C@@H](CCCN=C(N)N)C(N)=O [RIKRRIKKWLR]

MIC [20]: ≥ 32 µM | MIC [21]: 16 µM (≈ 23.9 µg/mL) | MIC [22]: ≥ 64 µM | MIC [23]: ≥ 128 µM | MIC [24]: 12 µM (≈ 17.9 µg/mL)
Compound: CC[C@H](C)[C@H](NC(=O)[C@H](CCCN=C(N)N)NC(=O)[C@H](CCC(N)=O)NC(=O)[C@@H](NC(=O)[C@@H](NC(=O)[C@@H](N)CCCN=C(N)N)[C@@H](C)CC)C(C)C)C(=O)N[C@@H](CCCCN)C(=O)N[C@@H](CCCCN)C(=O)N[C@@H](Cc1c[nH]c2ccccc12)C(=O)N[C@@H](CC(C)C)C(=O)N[C@@H](CCCN=C(N)N)C(N)=O [RIVQRIKKWLR]

MIC [20]: ≥ 256 µM | MIC [21]: ≥ 256 µM | MIC [22]: ≥ 256 µM | MIC [23]: ≥ 256 µM | MIC [24]: ≥ 256 µM
Compound: CC[C@H](C)[C@H](NC(=O)[C@H](CCCN=C(N)N)NC(=O)[C@H](CCC(N)=O)NC(=O)[C@@H](NC(=O)[C@@H](NC(=O)[C@@H](N)CCCN=C(N)N)[C@@H](C)CC)C(C)C)C(=O)N[C@@H](CCCCN)C(=O)N[C@@H](CCCCN)C(=O)N[C@@H](Cc1c[nH]c2ccccc12)C(=O)N[C@@H](CCCN=C(N)N)C(N)=O [RIVQRIKKWR]

MIC (Escherichia coli 804): ≥ 64 µM | MIC [8]: > 128 µM | MIC [9]: ≥ 64 µM | MIC [10]: 4 µM (≈ 6.53 µg/mL) | MIC [11]: ≥ 32 µM | MIC [12]: 8 µM (≈ 13.1 µg/mL) | MIC (Staphylococcus aureus 75): 8 µM (≈ 13.1 µg/mL) | MIC [13]: ≥ 128 µM | MIC [14]: > 128 µM | MIC [15]: 4 µM (≈ 6.53 µg/mL) | MIC [16]: 32 µM (≈ 52.3 µg/mL) | MIC [17]: ≥ 128 µM | MIC [18]: 16 µM (≈ 26.1 µg/mL) | MIC (Escherichia coli 780): ≥ 64 µM | MIC [19]: > 128 µM
Compound: NC(=O)[C@H](Cc1c[nH]c2ccccc12)NC(=O)[C@H](Cc1c[nH]c2ccccc12)NC(=O)[C@H](CCCN=C(N)N)NC(=O)[C@H](Cc1c[nH]c2ccccc12)NC(=O)[C@H](Cc1c[nH]c2ccccc12)NC(=O)[C@H](Cc1c[nH]c2ccccc12)NC(=O)[C@H](CCCN=C(N)N)NC(=O)[C@H](Cc1c[nH]c2ccccc12)NC(=O)[C@@H](N)Cc1c[nH]c2ccccc12 [WWRWWWRWW]
